These molecules were tested against Protein cereblon/Epidermal growth factor receptor (Homo sapiens, UniProt P00533+Q96SW2, L858R/T790M) (assay: Protac activity at native cereblon/EGFR T790M/L858R mutant (unknown origin) transfected in mouse Baf3 cells assessed as reduction in cell proliferation by MTS assay).
Format: cell-based

Sequence of Protein cereblon/Epidermal growth factor receptor (P00533 25-1210 T790M/L858R limits assumed, stated change not applied): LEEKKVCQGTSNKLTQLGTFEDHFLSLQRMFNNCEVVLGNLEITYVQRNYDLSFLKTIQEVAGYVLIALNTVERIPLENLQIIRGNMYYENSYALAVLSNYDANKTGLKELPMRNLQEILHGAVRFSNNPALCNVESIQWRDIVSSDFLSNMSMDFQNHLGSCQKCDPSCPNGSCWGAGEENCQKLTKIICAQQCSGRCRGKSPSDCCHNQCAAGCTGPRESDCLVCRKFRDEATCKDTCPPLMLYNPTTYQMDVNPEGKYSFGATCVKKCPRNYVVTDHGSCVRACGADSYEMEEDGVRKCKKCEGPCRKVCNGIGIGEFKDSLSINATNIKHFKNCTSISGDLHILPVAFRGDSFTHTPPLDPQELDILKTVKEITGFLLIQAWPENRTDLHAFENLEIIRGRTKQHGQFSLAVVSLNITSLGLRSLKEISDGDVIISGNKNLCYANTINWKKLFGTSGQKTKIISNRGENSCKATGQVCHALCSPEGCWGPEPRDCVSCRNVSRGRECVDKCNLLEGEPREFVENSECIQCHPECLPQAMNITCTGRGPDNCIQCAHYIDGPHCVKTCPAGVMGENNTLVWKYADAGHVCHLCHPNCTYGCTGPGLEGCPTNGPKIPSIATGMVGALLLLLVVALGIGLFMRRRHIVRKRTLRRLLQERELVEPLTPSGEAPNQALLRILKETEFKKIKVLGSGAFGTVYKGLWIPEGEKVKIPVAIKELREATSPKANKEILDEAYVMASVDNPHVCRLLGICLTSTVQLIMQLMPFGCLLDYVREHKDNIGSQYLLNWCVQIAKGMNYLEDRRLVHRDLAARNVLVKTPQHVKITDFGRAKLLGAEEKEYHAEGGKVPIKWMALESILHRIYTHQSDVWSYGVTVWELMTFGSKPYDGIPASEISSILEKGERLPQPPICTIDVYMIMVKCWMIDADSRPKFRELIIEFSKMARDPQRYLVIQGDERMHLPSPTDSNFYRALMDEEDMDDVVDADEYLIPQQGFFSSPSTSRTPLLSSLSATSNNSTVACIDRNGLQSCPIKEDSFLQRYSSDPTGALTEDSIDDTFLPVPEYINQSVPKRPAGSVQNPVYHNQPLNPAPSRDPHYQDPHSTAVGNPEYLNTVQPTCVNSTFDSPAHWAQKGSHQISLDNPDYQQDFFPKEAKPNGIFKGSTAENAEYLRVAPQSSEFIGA
Sequence of Protein cereblon/Epidermal growth factor receptor (Q96SW2 whole entry, stated change not applied): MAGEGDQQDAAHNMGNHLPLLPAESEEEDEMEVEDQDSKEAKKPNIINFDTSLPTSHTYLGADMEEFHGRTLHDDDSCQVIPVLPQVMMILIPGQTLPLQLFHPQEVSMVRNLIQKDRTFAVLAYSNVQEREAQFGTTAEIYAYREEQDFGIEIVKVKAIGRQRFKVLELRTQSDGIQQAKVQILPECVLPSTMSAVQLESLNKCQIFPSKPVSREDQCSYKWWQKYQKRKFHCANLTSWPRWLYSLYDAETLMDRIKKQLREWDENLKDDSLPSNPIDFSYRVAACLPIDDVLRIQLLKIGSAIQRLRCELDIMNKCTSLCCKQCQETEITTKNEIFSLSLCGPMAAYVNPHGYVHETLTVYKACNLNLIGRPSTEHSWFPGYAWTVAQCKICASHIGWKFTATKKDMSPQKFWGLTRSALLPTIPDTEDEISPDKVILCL

SMILES	EC50
O=C1CCC(N2C(=O)c3cccc(NCCOCCOCCOCCN4CCN(c5ccc(-c6ccc7c(c6)C(=O)N(C(C(=O)Nc6nccs6)c6ccccc6)C7)cn5)CC4)c3C2=O)C(=O)N1 (centres undefined)	< 500 nM
O=C1CCC(N2C(=O)c3cccc(NCCOCCOCCOCCC(=O)N4CCN(c5ccc(-c6ccc7c(c6)C(=O)N(C(C(=O)Nc6nccs6)c6ccccc6)C7)cc5)CC4)c3C2=O)C(=O)N1 (centres undefined)	< 500 nM
O=C1CCC(N2C(=O)c3cccc(NCCOCCOCCOCCOCCN4CCN(c5ccc(-c6ccc7c(c6)C(=O)N(C(C(=O)Nc6nccs6)c6ccccc6)C7)cc5)CC4)c3C2=O)C(=O)N1 (centres undefined)	< 500 nM
O=C1CCC(N2C(=O)c3cccc(NCCOCCOCCOCCN4CCN(c5ccc(-c6ccc7c(c6)C(=O)N(C(C(=O)Nc6nccs6)c6ccccc6)C7)cc5)CC4)c3C2=O)C(=O)N1 (centres undefined)	< 500 nM
